Measurements taken from patent publication US20070196902A1, “Method of detecting AZT resistance in HIV” (University of Pittsburgh, priority 2006, published 2007).
Where two headings read alike, the source gives them in different places.

Columns and labels:
[1] = test system: HIV-1 RT G335C with "classic" TAMs; details: G335C present with "classic" TAMs; cited from earlier work
[2] = test system: HIV-1 RT A360I with "classic" TAMs; details: A360I present with "classic" TAMs; cited from earlier work
[3] = test system: HIV-1 RT N3481 with "classic" TAMs; details: N3481 present with "classic" TAMs; cited from earlier work
[4] = test system: HIVLAI containing the M41L/L210W/T215Y mutations (AZT^R HIVLAI) passaged in increasing concentrations of AZT; test: AZT susceptibility of virus passaged in increasing AZT, selection starting with AZT^R HIVLAI; single-cycle assay in P4/R5 cells; assay type: cell-based, HIV-1; details: for Fold-Resistance: compared to wild-type passaged without AZT
Method: (§1) Selection of AZT-resistant viruses. Resistant virus was selected in two independent experiments by the passage of wild-type HIVLAI or HIVLAI containing the M41L/L210W/T215Y mutations (AZT^R HIVLAI) in MT-2 cells in increasing concentrations of AZT. To initiate each selection experiment, MT-2 cells (1×10^6) were pretreated for two hours with 0.5 μM and 25 μM AZT for wild-type HIVLAI and AZT^R HIVLAI, respectively, before virus was added. Viral replication was monitored by CPE. At +3/4 CPE (3 or 4 syncytia per field at 100× magnified field), cell-free supernatant was harvested and 0.1 ml of supernatant was added to fresh MT-2 cells to initiate a new passage. The concentration of AZT was doubled every three passages. The selection pressure was increased from an initial AZT concentration of 0.5 μM to a final concentration of 32 μM for wild-type HIVLAI, and from 25 μM to 150 μM for the AZT^R HIVLAI. The concentration of drug required to inhibit viral replication by 50% (IC50) was calculated every five passages to identify changes in AZT susceptibility, and fold-resistance was determined by dividing the IC50 of the mutant virus by the IC50 of wild-type HIV-1LAI. The genotype of the passaged virus was determined as described above.
(§2) Drug susceptibility assays. NRTI susceptibility was determined in P4/R5 cells as described previously (Parikh, U. M., et al. 2005. Antimicrob. Agents Chemother. 49:1139-44). Briefly, threefold dilutions of inhibitor were added to P4/R5 cells in triplicate and cells were infected with an amount of virus that produced 100 relative units of light (RLU) in no drug, virus control wells. After 48 hours, the cells were lysed (Gal-Screen; Tropix/Applied Biosystems, Foster City, Calif.) and the RLU was measured using a ThermoLabSystems luminometer (Waltham, Mass.). The IC50 and fold-resistance were calculated as described above. IC50 values from at least three independent experiments were log10 transformed and compared for statistically significant differences using the two-sample Student's t test.
(§3) Selection of AZT-resistant virus. Two independent AZT selection experiments were conducted. One starting with wild-type HIV-1LAI and the second starting with AZT HIV-1LAI (encoding M41L/L210W/T215Y). Both viruses were serially passaged in MT-2 cells in increasing concentrations of AZT. After every 5 passages, AZT susceptibility was measured in a single-cycle viral replication assay in P4/R5 cells (described in Materials and Methods). Viral RNA was extracted, converted to cDNA and the entire coding region of RT (residues 1-560) was PCR amplified and sequenced to monitor the appearance of mutations. In the selection experiment starting with HIV-1LAI, AZT susceptibility was reduced 66-fold by passage 35 and two polymerase domain TAMs were identified: D67N and K70R (Table 1).

[5] = test system: wild-type HIV-1LAI passaged in MT-2 cells in increasing concentrations of AZT; test: AZT susceptibility of virus passaged in increasing AZT, selection starting with wild-type HIV-1LAI; single-cycle assay in P4/R5 cells; assay type: cell-based; details: for Fold-Resistance: compared to wild-type passaged without AZT
Method: as §1, §2, §3

[6] = test system: HIV-1 RT D549N with TAMs D67N, K70R, T215Y and K219Q; details: D549N present with TAMs D67N; cited from earlier work

Cc1cn([C@H]2C[C@H](N=[N+]=[N-])[C@@H](CO)O2)c(=O)[nH]c1=O [AZT, 3′-azido-3′-dideoxythymidine]
reduction of AZT susceptibility [1]: 30 fold | reduction of AZT susceptibility [2]: 30 fold | reduction of AZT susceptibility [3]: 35 fold | IC50 ([4]; Human immunodeficiency virus 1, P4/R5, passage 1, AZT concentration 25 μM): 21 µM | IC50 ([4]; Human immunodeficiency virus 1, P4/R5, passage 10, AZT concentration 50 μM): 34 µM | IC50 ([4]; Human immunodeficiency virus 1, P4/R5, passage 25, AZT concentration 100 μM, M41L, D67D/N, L210W, L214F, T215Y): 126 µM | IC50 ([4]; Human immunodeficiency virus 1, P4/R5, passage 30, AZT concentration 150 μM, M41L, D67D/N, L210W, L214F, T215Y): 181 µM | IC50 ([4]; Human immunodeficiency virus 1, P4/R5, passage 35, AZT concentration 150 μM, M41L, D67N, L210W, L214F, T215Y): > 810 µM | Fold-Resistance ([4]; passage 25, M41L, D67D/N, L210W, L214F, T215Y): 39 fold | Fold-Resistance ([4]; passage 30, M41L, D67D/N, L210W, L214F, T215Y): 62 fold | IC50 ([5]; Human immunodeficiency virus 1, MT2, passage 1, AZT concentration 0.5 μM, read-out: IC50): 0.2 µM | IC50 ([5]; Human immunodeficiency virus 1, MT2, passage 10, AZT concentration 0.5 μM, read-out: IC50): 0.3 µM | IC50 ([5]; Human immunodeficiency virus 1, MT2, passage 20, AZT concentration 0.5 μM, read-out: IC50): 0.7 µM | IC50 ([5]; Human immunodeficiency virus 1, MT2, passage 25, AZT concentration 1.0 μM, mutations: None, read-out: IC50): 0.7 µM | IC50 ([5]; Human immunodeficiency virus 1, MT2, passage 30, AZT concentration 2.0 μM, D67D/N, K70K/R, read-out: IC50): 3 µM | IC50 ([5]; Human immunodeficiency virus 1, MT2, passage 35, AZT concentration 2.0 μM, D67N, K70R, read-out: IC50): 10 µM | IC50 ([5]; Human immunodeficiency virus 1, MT2, passage 40, AZT concentration 4.0 μM, D67N, K70R, A371A/V, Q509Q/L, read-out: IC50): 10 µM | IC50 ([5]; Human immunodeficiency virus 1, MT2, passage 55, AZT concentration 16 μM, D67N, K70R, T215T/I, A371A/V, Q509Q/L, read-out: IC50): 39 µM | IC50 ([5]; Human immunodeficiency virus 1, MT2, passage 60, AZT concentration 32 μM, D67N, K70R, T215I, A371A/V, Q509L, read-out: IC50): 56 µM | IC50 ([5]; Human immunodeficiency virus 1, MT2, passage 65, AZT concentration 32 μM, D67N, K70R, T215I/F, A371A/V, Q509L): ≥ 810 µM | Fold-Resistance ([5]; passage 25, mutations: None): 4.1 fold | Fold-Resistance ([5]; passage 30, D67D/N, K70K/R): 26 fold | Fold-Resistance ([5]; passage 35, D67N, K70R): 66 fold | Fold-Resistance ([5]; passage 40, D67N, K70R, A371A/V, Q509Q/L): 86 fold | Fold-Resistance ([5]; passage 55, D67N, K70R, T215T/I, A371A/V, Q509Q/L): 255 fold | Fold-Resistance ([5]; passage 60, D67N, K70R, T215I, A371A/V, Q509L): 489 fold | increase in resistance [6]: 1,230 fold
